From ChEMBL document CHEMBL1153482, “Design of selective Cathepsin inhibitors” (Bioorg Med Chem Lett, 2009)

Key:
[1] = biological target: Procathepsin L (Homo sapiens, UniProt P07711); assay: Inhibition of cathepsin L assessed as inhibition of fluorogenic substrate cleavage
[2] = biological target: Cathepsin S (Homo sapiens, UniProt P25774); assay: Inhibition of cathepsin S assessed as inhibition of fluorogenic substrate cleavage
[3] = biological target: Cathepsin B (Homo sapiens, UniProt P07858); assay: Inhibition of human liver cathepsin B assessed as inhibition of fluorogenic substrate cleavage
[4] = biological target: T1, Cathepsin K (Homo sapiens, UniProt P43235); assay: Inhibition of cathepsin K assessed as inhibition of fluorogenic substrate cleavage
T1 sequence (P43235 whole entry): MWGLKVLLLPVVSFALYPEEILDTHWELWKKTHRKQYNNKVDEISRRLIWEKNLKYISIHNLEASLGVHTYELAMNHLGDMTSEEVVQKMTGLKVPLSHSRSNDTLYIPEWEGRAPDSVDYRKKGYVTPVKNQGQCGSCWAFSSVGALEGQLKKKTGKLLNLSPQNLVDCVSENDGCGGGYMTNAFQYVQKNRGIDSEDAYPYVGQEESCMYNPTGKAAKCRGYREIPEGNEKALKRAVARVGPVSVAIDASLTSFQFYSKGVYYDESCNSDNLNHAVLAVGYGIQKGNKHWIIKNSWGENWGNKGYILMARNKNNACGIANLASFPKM

[5] = biological target: T2, Cathepsin L2 (Homo sapiens, UniProt O60911); assay: Inhibition of cathepsin L2 assessed as inhibition of fluorogenic substrate cleavage
T2 sequence (O60911 whole entry): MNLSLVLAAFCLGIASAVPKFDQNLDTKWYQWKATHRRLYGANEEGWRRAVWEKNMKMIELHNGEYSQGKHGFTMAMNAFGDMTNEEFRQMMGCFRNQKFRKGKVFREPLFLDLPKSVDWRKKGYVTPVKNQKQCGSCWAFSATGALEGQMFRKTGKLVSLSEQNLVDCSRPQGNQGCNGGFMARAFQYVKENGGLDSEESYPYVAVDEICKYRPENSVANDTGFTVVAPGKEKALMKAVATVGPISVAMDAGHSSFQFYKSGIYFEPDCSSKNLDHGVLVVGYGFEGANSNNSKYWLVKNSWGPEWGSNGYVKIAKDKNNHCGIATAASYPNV

Chain of Procathepsin L (P07711 whole entry): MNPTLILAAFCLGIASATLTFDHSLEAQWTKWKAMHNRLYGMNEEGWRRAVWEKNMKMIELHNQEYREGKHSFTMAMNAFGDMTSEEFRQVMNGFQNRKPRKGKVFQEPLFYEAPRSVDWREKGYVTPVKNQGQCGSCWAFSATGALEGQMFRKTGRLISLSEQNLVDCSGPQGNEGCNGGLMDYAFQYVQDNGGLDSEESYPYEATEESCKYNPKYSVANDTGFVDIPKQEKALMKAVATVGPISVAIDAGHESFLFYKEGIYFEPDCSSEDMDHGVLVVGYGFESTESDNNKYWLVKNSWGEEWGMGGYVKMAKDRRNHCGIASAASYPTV
Chain of Cathepsin S (P25774 whole entry): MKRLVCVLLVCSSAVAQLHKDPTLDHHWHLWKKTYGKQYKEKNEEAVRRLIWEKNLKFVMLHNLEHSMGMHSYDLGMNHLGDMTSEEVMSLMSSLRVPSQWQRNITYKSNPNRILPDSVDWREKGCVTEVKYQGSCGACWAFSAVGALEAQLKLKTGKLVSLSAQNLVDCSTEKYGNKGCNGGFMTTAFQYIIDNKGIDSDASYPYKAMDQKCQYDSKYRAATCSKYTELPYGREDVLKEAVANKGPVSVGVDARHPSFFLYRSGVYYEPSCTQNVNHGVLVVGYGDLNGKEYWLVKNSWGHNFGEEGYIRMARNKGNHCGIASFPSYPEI

Which results are given for `Cc1nnc(-c2cccc(C[C@H](NC(=O)c3cc(C(C)(C)C)nn3C)C(=O)NCC#N)c2)s1`?
IC50 [1]: 126 nM; IC50 [2]: 316 nM; IC50 [3]: > 10 µM; IC50 [4]: 3160 nM; IC50 [5]: 3.16 nM

Which IC50 [1] does the source give for `Cn1cc(-c2cccc(C[C@H](NC(=O)c3ccccc3)C(=O)NCC#N)c2)cn1` here?
The IC50 was 501 nM.

And the IC50 [2]?
Its IC50 is 100 nM.

And the IC50 [3]?
Its IC50 is 6.31 µM.

What about the IC50 [4] of the same compound?
The IC50 was > 10000 nM.

What about the IC50 [5] of the same compound?
Its IC50 is 1580 nM.

What does the source list for `Cn1cc(-c2cccc(C[C@H](NC(=O)c3cc(C(C)(C)C)nn3C)C(=O)NCC#N)c2)cn1`?
IC50 [1]: 15.8 nM; IC50 [2]: 316 nM; IC50 [3]: > 10 µM; IC50 [4]: 6310 nM; IC50 [5]: 158 nM

Which results are given for `Cc1cccc(C[C@H](NC(=O)c2cc(C(C)(C)C)nn2C)C(=O)NCC#N)c1`?
IC50 [2]: 794 nM; IC50 [3]: 3.98 µM; IC50 [4]: 2510 nM; IC50 [5]: 398 nM

With `N#CCNC(=O)[C@H](Cc1cccc(-c2cccnn2)c1)NC(=O)c1ccccc1` as the compound, how does the IC50 [1] read?
The IC50 was 1260 nM.

And the IC50 [2]?
The IC50 was 7.94 nM.

And the IC50 [3]?
The IC50 was 6.31 µM.

And the IC50 [4]?
Its IC50 is > 6310 nM.

What about the IC50 [5] of the same compound?
The IC50 was 63.1 nM.

`N#CCNC(=O)[C@H](Cc1cccc(-c2ccccn2)c1)NC(=O)c1ccccc1` was tested. Which IC50 [1] did it give?
The IC50 was 3160 nM.

And the IC50 [2]?
The IC50 was 631 nM.

What about the IC50 [3] of the same compound?
The IC50 was 6.31 µM.

And the IC50 [4]?
Its IC50 is > 10000 nM.

And the IC50 [5]?
The IC50 was > 10000 nM.

With `Cc1nnc(-c2cccc(C[C@H](NC(=O)c3cc(C(C)(C)C)nn3C)C(=O)NCC#N)c2)o1` as the compound, how does the IC50 [1] read?
The IC50 was 5.01 nM.

And the IC50 [2]?
The IC50 was 79.4 nM.

What about the IC50 [3] of the same compound?
The IC50 was > 10 µM.

What about the IC50 [4] of the same compound?
Its IC50 is 63.1 nM.

What about the IC50 [5] of the same compound?
The IC50 was 6.31 nM.

What does the source list for `Cn1nc(C(C)(C)C)cc1C(=O)N[C@@H](Cc1cccc(-c2nnc(CN)o2)c1)C(=O)NCC#N`?
IC50 [1]: 2 nM; IC50 [2]: 200 nM; IC50 [3]: 3.98 µM; IC50 [4]: 1000 nM; IC50 [5]: 39.8 nM

What does the source list for `N#CCNC(=O)[C@H](Cc1cccc(-c2cncnc2)c1)NC(=O)c1ccccc1`?
IC50 [1]: 3980 nM; IC50 [2]: 316 nM; IC50 [3]: > 10 µM; IC50 [4]: > 7940 nM; IC50 [5]: > 7940 nM

How did the IC50 [1] turn out when `Cn1nc(C(C)(C)C)cc1C(=O)N[C@@H](Cc1cccc(-c2nnco2)c1)C(=O)NCC#N` was run?
Its IC50 is 15.8 nM.

What about the IC50 [2] of the same compound?
Its IC50 is 63.1 nM.

What about the IC50 [3] of the same compound?
Its IC50 is > 10 µM.

What about the IC50 [4] of the same compound?
The IC50 was 126 nM.

What about the IC50 [5] of the same compound?
The IC50 was 20 nM.

`N#CCNC(=O)[C@H](Cc1cccc(-c2cn[nH]c2)c1)NC(=O)c1ccccc1` was tested. Which IC50 [1] did it give?
Its IC50 is 794 nM.

And the IC50 [2]?
The IC50 was 79.4 nM.

What about the IC50 [3] of the same compound?
The IC50 was 7.94 µM.

What about the IC50 [4] of the same compound?
Its IC50 is > 10000 nM.

And the IC50 [5]?
Its IC50 is 1580 nM.

How did the IC50 [1] turn out when `COCc1nnc(-c2cccc(C[C@H](NC(=O)c3cc(C(C)(C)C)nn3C)C(=O)NCC#N)c2)o1` was run?
The IC50 was 3.98 nM.

What about the IC50 [2] of the same compound?
Its IC50 is 79.4 nM.

What about the IC50 [3] of the same compound?
Its IC50 is > 10 µM.

And the IC50 [4]?
The IC50 was 126 nM.

What about the IC50 [5] of the same compound?
The IC50 was 2 nM.

`N#CCNC(=O)[C@H](Cc1cccc(-c2nncs2)c1)NC(=O)c1ccccc1` was tested. Which IC50 [1] did it give?
The IC50 was 200 nM.

And the IC50 [2]?
The IC50 was 2.51 nM.

What about the IC50 [3] of the same compound?
The IC50 was > 10 µM.

And the IC50 [4]?
Its IC50 is 631 nM.

What about the IC50 [5] of the same compound?
Its IC50 is 25.1 nM.

With `N#CCNC(=O)[C@H](Cc1cccc(-c2ccnnc2)c1)NC(=O)c1ccccc1` as the compound, how does the IC50 [1] read?
Its IC50 is > 7940 nM.

What about the IC50 [2] of the same compound?
Its IC50 is 794 nM.

What about the IC50 [3] of the same compound?
Its IC50 is > 10 µM.

And the IC50 [4]?
Its IC50 is > 10000 nM.

What about the IC50 [5] of the same compound?
The IC50 was > 10000 nM.

What does the source list for `Cn1nc(C(C)(C)C)cc1C(=O)N[C@@H](Cc1cccc(Cl)c1)C(=O)NCC#N`?
IC50 [1]: 12.6 nM; IC50 [2]: 1000 nM; IC50 [3]: 6.31 µM; IC50 [4]: 3160 nM; IC50 [5]: 200 nM

Which results are given for `Cn1nc(C(C)(C)C)cc1C(=O)N[C@@H](Cc1cccc(-c2nnc(CCN)o2)c1)C(=O)NCC#N`?
IC50 [1]: 1.26 nM; IC50 [2]: 63.1 nM; IC50 [3]: 6.31 µM; IC50 [4]: 158 nM; IC50 [5]: 100 nM

What does the source list for `Cn1nc(C(C)(C)C)cc1C(=O)N[C@@H](Cc1cccc(-c2nncs2)c1)C(=O)NCC#N`?
IC50 [1]: 5.01 nM; IC50 [2]: 15.8 nM; IC50 [3]: > 10 µM; IC50 [4]: 126 nM; IC50 [5]: 6.31 nM

Which results are given for `N#CCNC(=O)[C@H](Cc1cccc(-c2ccn[nH]2)c1)NC(=O)c1ccccc1`?
IC50 [1]: 1580 nM; IC50 [2]: 316 nM; IC50 [3]: 5.01 µM; IC50 [4]: > 10000 nM; IC50 [5]: 3980 nM

How did the IC50 [1] turn out when `N#CCNC(=O)[C@H](Cc1cccc(Cl)c1)NC(=O)c1ccccc1` was run?
Its IC50 is 251 nM.

What about the IC50 [2] of the same compound?
Its IC50 is 126 nM.

And the IC50 [3]?
The IC50 was 5.01 µM.

And the IC50 [4]?
The IC50 was 3160 nM.

What about the IC50 [5] of the same compound?
Its IC50 is 794 nM.

How did the IC50 [1] turn out when `N#CCNC(=O)[C@H](Cc1cccc(-c2ccncc2)c1)NC(=O)c1ccccc1` was run?
The IC50 was 1580 nM.

What about the IC50 [2] of the same compound?
The IC50 was 251 nM.

And the IC50 [3]?
The IC50 was > 10 µM.

What about the IC50 [4] of the same compound?
Its IC50 is > 10000 nM.

And the IC50 [5]?
The IC50 was 3160 nM.

`Cn1nc(C(C)(C)C)cc1C(=O)N[C@@H](Cc1cccc(-c2nnc(CO)o2)c1)C(=O)NCC#N` was tested. Which IC50 [1] did it give?
Its IC50 is 6.31 nM.

And the IC50 [2]?
The IC50 was 63.1 nM.

And the IC50 [3]?
The IC50 was > 10 µM.

And the IC50 [4]?
The IC50 was 100 nM.

And the IC50 [5]?
Its IC50 is 7.94 nM.

Which results are given for `N#CCNC(=O)[C@H](Cc1cccc(-c2cccnc2)c1)NC(=O)c1ccccc1`?
IC50 [1]: 2000 nM; IC50 [2]: 126 nM; IC50 [3]: 7.94 µM; IC50 [4]: > 7940 nM; IC50 [5]: 3980 nM

What does the source list for `N#CCNC(=O)[C@H](Cc1cccc(-c2nnco2)c1)NC(=O)c1ccccc1`?
IC50 [1]: 501 nM; IC50 [2]: 20 nM; IC50 [3]: > 10 µM; IC50 [4]: 1260 nM; IC50 [5]: 158 nM

`Cn1nccc1-c1cccc(C[C@H](NC(=O)c2ccccc2)C(=O)NCC#N)c1` was tested. Which IC50 [1] did it give?
Its IC50 is 3160 nM.

What about the IC50 [2] of the same compound?
Its IC50 is 316 nM.

And the IC50 [3]?
The IC50 was 7.94 µM.

And the IC50 [4]?
Its IC50 is > 10000 nM.

And the IC50 [5]?
Its IC50 is 3160 nM.
